Data reported in US9765108B2 (SHILPA MEDICARE LIMITED, priority 2012, dated 2017).
Like-named read-outs stand apart in the source and are kept apart here.

Experiments:
[1] = cited from earlier work
[2] = Water content of lyophilized formulation / crystalline form; format: physicochemical; details: neat crystalline form as obtained after lyophilization, no bulking agent
Protocol: The secondary drying phase is the final segment of the lyophilization cycle, where residual moisture is removed from a formulation's interstitial matrix by desorption with elevated temperatures and/or reduced pressures. The final moisture content of a lyophilized formulation, which can be measured by Karl Fischer or other methods, is important because if the solid cake contains too much residual moisture, the stability of the active can be compromised.
Chemical stability is tested for both example 1 & it's corresponding placebo formulation by storing the lyophilized vials under various conditions: 25° C. and 60% relative humidity (“A”); 40° C. and 75% relative humidity (“B”); and 60° (“C”); for one month. Impurity analyses are done before storage (“Initial”) and after storage, and are expressed as percentages of the label 5-azacytidine content.

## Nc1ncn([C@@H]2O[C@H](CO)[C@@H](O)[C@H]2O)c(=O)n1 [5-azacytidine, 4-amino-1-β-D-ribofuranosyl-1,3,5-triazin-2(1H)-one]
[1]; 5% Tween 80 in water
  Solubility: sparingly soluble
[1]; 5% dextrose in water
  Solubility: sparingly soluble
[1]; N-methylpyrrolidone
  Solubility: sparingly soluble
[1]; acetone
  Solubility: insoluble
[1]; dimethylsulfoxide (DMSO)
  Solubility: soluble
[1]; ethanol and water (50:50)
  Solubility: slightly soluble
[1]; ethanol
  Solubility: insoluble
[1]; methyl ethyl ketone
  Solubility: insoluble
[1]; normal saline
  Solubility: sparingly soluble
[1]; polyethylene glycol
  Solubility: slightly soluble
[1]; propylene glycol
  Solubility: slightly soluble
[1]; water saturated octanol
  Solubility: sparingly soluble
[1]; water
  Solubility: sparingly soluble

## Nc1ncn([C@@H]2O[C@H](CO)[C@@H](O)[C@H]2O)c(=O)n1 [Crystalline 5-Azacytidine Form-SA-1, 5-Azacytidine]
[2]
  Water content: 0.6 % w/w

## Nc1ncn([C@@H]2O[C@H](CO)[C@@H](O)[C@H]2O)c(=O)n1 [Crystalline 5-Azacytidine Form-SA-2, 5-Azacytidine]
[2]
  Water content: 0.7 % w/w
